# Data taken from patent publication US10405547B2, “Substituted cyclic amides as herbicides” (FMC Corporation, priority 2015, dated 2019).
# What was measured:
# Assay type in all cases: in vivo
# [1] = tested on: barnyardgrass (Echinochloa crus-galli); assay: Test B flooded paddy test, barnyardgrass; conditions: 250 g ai/ha, applied to paddy water, visual rating after 13 to 15 days, scale 0 (no effect) to 100 (complete control)
# Summary of the method: (§1)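 Compound was added to standing water 3 cm above soil, flood maintained, and plants held in a greenhouse before visual scoring against controls at 13 to 15 days.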
# corn (Zea mays) = assay: Test A postemergence, corn; conditions: 0 to 100 scale (0 no effect, 100 complete control)
# Summary of the method: (§2)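 Visual injury scores (0 no effect to 100 complete control) taken about 10 days after treatment, relative to untreated plants. Treatments were directed soil spray at planting for preemergence, or foliar application to one- to two-leaf plants (2-10 cm) for postemergence, with surfactant-containing formulations in loam–sand pots.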
# [2] = tested on: ducksalad (Heteranthera limosa); assay: Test B flooded paddy test, ducksalad; conditions: 250 g ai/ha, applied to paddy water, visual rating after 13 to 15 days, scale 0 (no effect) to 100 (complete control)
# Summary of the method: as §1
# rice (Oryza sativa) = assay: Test B flooded paddy test, rice; conditions: 250 g ai/ha, applied to paddy water, visual rating after 13 to 15 days, scale 0 (no effect) to 100 (complete control)
# Summary of the method: as §1
# [3] = tested on: ryegrass, Italian (Lolium multiflorum); assay: Test A preemergence, Italian ryegrass; conditions: 0 to 100 scale (0 no effect, 100 complete control)
# Summary of the method: as §2
# [4] = tested on: foxtail, giant (Setaria faberii); assay: Test A preemergence, giant foxtail; conditions: 0 to 100 scale (0 no effect, 100 complete control)
# Summary of the method: as §2
# [5] = tested on: foxtail, giant (Setaria faberii); assay: Test A postemergence, giant foxtail; conditions: 0 to 100 scale (0 no effect, 100 complete control)
# Summary of the method: as §2
# kochia (Kochia scoparia) [6] = assay: Test A preemergence, kochia; conditions: 0 to 100 scale (0 no effect, 100 complete control)
# Summary of the method: as §2
# kochia (Kochia scoparia) [7] = assay: Test A postemergence, kochia; conditions: 0 to 100 scale (0 no effect, 100 complete control)
# Summary of the method: as §2
# [8] = tested on: wheat (Triticum aestivum); assay: Test A postemergence, wheat; conditions: 0 to 100 scale (0 no effect, 100 complete control)
# Summary of the method: as §2
# [9] = tested on: pigweed (Amaranthus retroflexus); assay: Test A postemergence, pigweed; conditions: 0 to 100 scale (0 no effect, 100 complete control)
# Summary of the method: as §2
# [10] = tested on: ragweed (common ragweed, Ambrosia elatior); assay: Test A preemergence, ragweed; conditions: 0 to 100 scale (0 no effect, 100 complete control)
# Summary of the method: as §2
# [11] = tested on: ragweed (common ragweed, Ambrosia elatior); assay: Test A postemergence, ragweed; conditions: 0 to 100 scale (0 no effect, 100 complete control)
# Summary of the method: as §2
# [12] = tested on: pigweed (Amaranthus retroflexus); assay: Test A preemergence, pigweed; conditions: 0 to 100 scale (0 no effect, 100 complete control)
# Summary of the method: as §2
# [13] = tested on: barnyardgrass (Echinochloa crus-galli); assay: Test A preemergence, barnyardgrass; conditions: 0 to 100 scale (0 no effect, 100 complete control)
# Summary of the method: as §2
# [14] = tested on: sedge, umbrella (small-flower umbrella sedge, Cyperus difformis); assay: Test B flooded paddy test, umbrella sedge; conditions: 250 g ai/ha, applied to paddy water, visual rating after 13 to 15 days, scale 0 (no effect) to 100 (complete control)
# Summary of the method: as §1
# [15] = tested on: ryegrass, Italian (Lolium multiflorum); assay: Test A postemergence, Italian ryegrass; conditions: 0 to 100 scale (0 no effect, 100 complete control)
# Summary of the method: as §2
# [16] = tested on: barnyardgrass (Echinochloa crus-galli); assay: Test A postemergence, barnyardgrass; conditions: 0 to 100 scale (0 no effect, 100 complete control)
# Summary of the method: as §2
# [17] = tested on: galium (catchweed bedstraw, Galium aparine); assay: Test A postemergence, galium; conditions: 0 to 100 scale (0 no effect, 100 complete control)
# Summary of the method: as §2
# [18] = tested on: blackgrass (Alopecurus myosuroides); assay: Test A postemergence, blackgrass; conditions: 0 to 100 scale (0 no effect, 100 complete control)
# Summary of the method: as §2
# [19] = 125 g ai/ha, visual injury, approximately 10 days
# [20] = 500 g ai/ha, visual injury, approximately 10 days
Structure (SMILES),"Plant response rating, Barnyardgrass (Flood) [1]","Plant response rating, Corn (corn (Zea mays); [19])","Plant response rating, Ducksalad (Flood) [2]","Plant response rating, Rice (Flood) (rice (Oryza sativa))","Plant response rating, Ryegrass, Italian ([3]; 125 g ai/ha)","Plant response rating, Foxtail, Giant ([4]; 125 g ai/ha)","Plant response rating, Foxtail, Giant [5, 19]","Plant response rating, Kochia (kochia (Kochia scoparia) [6]; 125 g ai/ha)","Plant response rating, Kochia (kochia (Kochia scoparia) [7]; [19])","Plant response rating, Wheat [8, 19]","Plant response rating, Pigweed [9, 19]","Plant response rating, Ragweed ([10]; 125 g ai/ha)","Plant response rating, Ragweed [11, 19]","Plant response rating, Pigweed ([12]; 125 g ai/ha)","Plant response rating, Barnyardgrass ([13]; 125 g ai/ha)","Plant response rating, Sedge, Umbrella (Flood) [14]","Plant response rating, Ryegrass, Italian [15, 19]","Plant response rating, Barnyardgrass [16, 19]","Plant response rating, Galium [17, 19]","Plant response rating, Blackgrass [18, 19]",other results
"O=C1NCC(c2cccc(CN3CCOCC3)c2)C1C(=O)Nc1cccc(F)c1F (single isomer, unassigned) [Compound 90]",0,0,0,0,0,0,0,0,0,0,0,0,0,0,0,0,0,0,0,0,"Plant response rating, Corn (corn (Zea mays); 31 g ai/ha): 0; Plant response rating, Ryegrass, Italian ([3]; 31 g ai/ha): 0; Plant response rating, Foxtail, Giant ([4]; 31 g ai/ha): 0; Plant response rating, Foxtail, Giant ([5]; 31 g ai/ha): 0; Plant response rating, Kochia (kochia (Kochia scoparia) [6]; 31 g ai/ha): 0; Plant response rating, Kochia (kochia (Kochia scoparia) [7]; 31 g ai/ha): 0; Plant response rating, Wheat ([8]; 31 g ai/ha): 0; Plant response rating, Pigweed ([9]; 31 g ai/ha): 0; Plant response rating, Ragweed ([10]; 31 g ai/ha): 0; Plant response rating, Ragweed ([11]; 31 g ai/ha): 0; Plant response rating, Pigweed ([12]; 31 g ai/ha): 0; Plant response rating, Barnyardgrass ([13]; 31 g ai/ha): 0; Plant response rating, Ryegrass, Italian ([15]; 31 g ai/ha): 0; Plant response rating, Barnyardgrass ([16]; 31 g ai/ha): 0; Plant response rating, Galium ([17]; 31 g ai/ha): 0; Plant response rating, Blackgrass ([18]; 31 g ai/ha): 0"
O=C1NCC(c2cccc(OCc3ccco3)c2)C1C(=O)Nc1ccccc1Cl (stereo not drawn) [Compound 1],0,0,65,0,0,0,0,0,0,0,0,0,0,0,0,30,0,0,0,0,"Plant response rating, Corn (corn (Zea mays); [20]): 0; Plant response rating, Ryegrass, Italian ([3]; 500 g ai/ha): 0; Plant response rating, Foxtail, Giant ([4]; 500 g ai/ha): 0; Plant response rating, Foxtail, Giant [5, 20]: 0; Plant response rating, Kochia (kochia (Kochia scoparia) [6]; 500 g ai/ha): 0; Plant response rating, Kochia (kochia (Kochia scoparia) [7]; [20]): 0; Plant response rating, Wheat [8, 20]: 0; Plant response rating, Pigweed [9, 20]: 0; Plant response rating, Ragweed ([10]; 500 g ai/ha): 0; Plant response rating, Ragweed [11, 20]: 30; Plant response rating, Pigweed ([12]; 500 g ai/ha): 0; Plant response rating, Barnyardgrass ([13]; 500 g ai/ha): 0; Plant response rating, Ryegrass, Italian [15, 20]: 0; Plant response rating, Barnyardgrass [16, 20]: 0; Plant response rating, Galium [17, 20]: 0; Plant response rating, Blackgrass [18, 20]: 0"
O=C1NCC(c2cccc(OCc3ccco3)c2)C1C(=O)Nc1ccccc1C(F)(F)F (stereo not drawn) [Compound 2],0,0,0,0,0,0,0,0,0,0,0,0,0,0,0,0,0,0,0,0,"Plant response rating, Corn (corn (Zea mays); [20]): 0; Plant response rating, Ryegrass, Italian ([3]; 500 g ai/ha): 0; Plant response rating, Foxtail, Giant ([4]; 500 g ai/ha): 20; Plant response rating, Foxtail, Giant [5, 20]: 10; Plant response rating, Kochia (kochia (Kochia scoparia) [6]; 500 g ai/ha): 0; Plant response rating, Kochia (kochia (Kochia scoparia) [7]; [20]): 0; Plant response rating, Wheat [8, 20]: 0; Plant response rating, Pigweed [9, 20]: 0; Plant response rating, Ragweed ([10]; 500 g ai/ha): 0; Plant response rating, Ragweed [11, 20]: 0; Plant response rating, Pigweed ([12]; 500 g ai/ha): 0; Plant response rating, Barnyardgrass ([13]; 500 g ai/ha): 30; Plant response rating, Ryegrass, Italian [15, 20]: 10; Plant response rating, Barnyardgrass [16, 20]: 0; Plant response rating, Galium [17, 20]: 0; Plant response rating, Blackgrass [18, 20]: 0"
O=C1NCC(c2cccc(OCC3CC3)c2)C1C(=O)Nc1ccccc1Cl (stereo not drawn) [Compound 4],0,0,0,0,0,70,40,0,0,0,0,0,0,0,60,0,0,40,0,0,"Plant response rating, Corn (corn (Zea mays); [20]): 0; Plant response rating, Ryegrass, Italian ([3]; 500 g ai/ha): 20; Plant response rating, Foxtail, Giant ([4]; 500 g ai/ha): 90; Plant response rating, Foxtail, Giant [5, 20]: 80; Plant response rating, Kochia (kochia (Kochia scoparia) [6]; 500 g ai/ha): 30; Plant response rating, Kochia (kochia (Kochia scoparia) [7]; [20]): 0; Plant response rating, Wheat [8, 20]: 0; Plant response rating, Pigweed [9, 20]: 30; Plant response rating, Ragweed ([10]; 500 g ai/ha): 0; Plant response rating, Ragweed [11, 20]: 40; Plant response rating, Pigweed ([12]; 500 g ai/ha): 20; Plant response rating, Barnyardgrass ([13]; 500 g ai/ha): 90; Plant response rating, Ryegrass, Italian [15, 20]: 40; Plant response rating, Barnyardgrass [16, 20]: 80; Plant response rating, Galium [17, 20]: 0; Plant response rating, Blackgrass [18, 20]: 40"
O=C1NCC(c2cccc(OCC3OCCO3)c2)C1C(=O)Nc1ccccc1C(F)(F)F (stereo not drawn) [Compound 5],0,0,65,0,0,30,20,0,0,0,0,0,0,0,0,0,20,0,0,0,"Plant response rating, Corn (corn (Zea mays); [20]): 0; Plant response rating, Ryegrass, Italian ([3]; 500 g ai/ha): 0; Plant response rating, Foxtail, Giant ([4]; 500 g ai/ha): 90; Plant response rating, Foxtail, Giant [5, 20]: 50; Plant response rating, Kochia (kochia (Kochia scoparia) [6]; 500 g ai/ha): 0; Plant response rating, Kochia (kochia (Kochia scoparia) [7]; [20]): 0; Plant response rating, Wheat [8, 20]: 0; Plant response rating, Pigweed [9, 20]: 0; Plant response rating, Ragweed ([10]; 500 g ai/ha): 0; Plant response rating, Ragweed [11, 20]: 0; Plant response rating, Pigweed ([12]; 500 g ai/ha): 30; Plant response rating, Barnyardgrass ([13]; 500 g ai/ha): 50; Plant response rating, Ryegrass, Italian [15, 20]: 20; Plant response rating, Barnyardgrass [16, 20]: 20; Plant response rating, Galium [17, 20]: 0; Plant response rating, Blackgrass [18, 20]: 0"
